Among the data in ChEMBL document CHEMBL3045551, “Synthesis and Acaricidal Activity of N-(1,3,4-Thiadiazol-2-yl)cyclopropanecarboxamides” (2003) are mortality values, retold here.

Common to all, as to assay type: functional
Assay [1] deals with Tetranychus urticae. Description: Acaricidal activity against Tetranychus urticae (two-spotted spider mite) assessed as mite mortality at 12.5 ppm relative to untreated control.
Assay [2] has as its system Tetranychus urticae. As to the kind of experiment: Acaricidal activity against Tetranychus urticae (two-spotted spider mite) assessed as mite mortality at 200 ppm relative to untreated control.
Assay [3] concerns Tetranychus urticae. As to the kind of experiment: Acaricidal activity against Tetranychus urticae (two-spotted spider mite) assessed as mite mortality at 50 ppm relative to untreated control.
Assay [4] relates to Tetranychus urticae. Description: Acaricidal activity against Tetranychus urticae (two-spotted spider mite) assessed as mite mortality at 500 ppm relative to untreated control.

Take `CC1(C(=O)Nc2nnc(C(F)(F)C(F)(F)F)s2)CC1(Cl)Cl` (stereo unspecified): the mortality at 12.5 ppm in the assay with Tetranychus urticae [1] was determined as 30%. In addition, the mortality at 200 ppm in the assay on Tetranychus urticae [2] was 100%. Further, in the assay on Tetranychus urticae [3], the mortality at 50 ppm is 100%. Moreover, in the assay with Tetranychus urticae [4], the mortality at 500 ppm is 100%.

Turning to `CC1(C(=O)Nc2nnc(C(F)(F)F)s2)CC1(Cl)Cl` (stereo unspecified), in the assay with Tetranychus urticae [1], the mortality at 12.5 ppm is 30%. Besides, the mortality at 200 ppm in the assay with Tetranychus urticae [2] was 100%. Further, in the assay with Tetranychus urticae [3], the mortality at 50 ppm was 100%. The mortality at 500 ppm in the assay with Tetranychus urticae [4] amounted to 100%.

Regarding `O=C(Nc1nnc(C(F)(F)F)s1)C1CC1(Cl)Cl` (stereo unspecified), in the assay with Tetranychus urticae [4], the mortality at 500 ppm is 0%.

In the case of `CCC1(C(=O)Nc2nnc(C(F)(F)F)s2)CC1(Cl)Cl` (stereo unspecified), the mortality at 12.5 ppm in the assay on Tetranychus urticae [1] is 0%. Moreover, in the assay with Tetranychus urticae [2], the mortality at 200 ppm was 100%. Also, in the assay with Tetranychus urticae [3], the mortality at 50 ppm turned out to be 100%. The mortality at 500 ppm with Tetranychus urticae [4] was 100%.

For `CCCCC1(C(=O)Nc2nnc(C(F)(F)F)s2)CC1(Cl)Cl` (stereo unspecified), the mortality at 200 ppm in the assay with Tetranychus urticae [2] was determined as 30%. For the same compound, the mortality at 500 ppm in the assay with Tetranychus urticae [4] came to 80%.

On to `CC(C)C1(C(=O)Nc2nnc(C(F)(F)F)s2)CC1(Cl)Cl` (stereo unspecified), for which the mortality at 12.5 ppm in the assay with Tetranychus urticae [1] worked out at 30%. In the assay on Tetranychus urticae [2], the mortality at 200 ppm was 80%. Also, the mortality at 50 ppm with Tetranychus urticae [3] was 30%. For the same compound, in the assay with Tetranychus urticae [4], the mortality at 500 ppm is 80%.

On to `Cc1nnc(NC(=O)C2(C)CC2(Cl)Cl)s1` (stereo unspecified), for which, in the assay with Tetranychus urticae [4], the mortality at 500 ppm was determined as 0%.

As for `CCCC1(C(=O)Nc2nnc(C(F)(F)F)s2)CC1(Cl)Cl` (stereo unspecified), the mortality at 12.5 ppm in the assay with Tetranychus urticae [1] was 0%. Also, the mortality at 200 ppm with Tetranychus urticae [2] came out at 100%. Moreover, the mortality at 50 ppm in the assay on Tetranychus urticae [3] was 80%. Further, the mortality at 500 ppm in the assay with Tetranychus urticae [4] stood at 100%.

As for `CC1(C(=O)Nc2nnc(C(F)(F)F)s2)CC1`, in the assay with Tetranychus urticae [4], the mortality at 500 ppm came out at 0%.

For the compound `CC1(C(=O)Nc2nnc(C(F)(F)F)s2)CC1(Br)Br` (stereo unspecified), in the assay on Tetranychus urticae [1], the mortality at 12.5 ppm stood at 0%. Besides, the mortality at 200 ppm in the assay with Tetranychus urticae [2] is 100%. In addition, the mortality at 50 ppm in the assay with Tetranychus urticae [3] turned out to be 30%. In addition, the mortality at 500 ppm in the assay on Tetranychus urticae [4] came to 100%.

On to `CCc1nnc(NC(=O)C2(C)CC2(Cl)Cl)s1` (stereo unspecified), for which, in the assay with Tetranychus urticae [4], the mortality at 500 ppm is 0%.

Take `CC1(C(=O)Nc2nnc(C(F)(F)C(F)(F)C(F)(F)F)s2)CC1(Cl)Cl` (stereo unspecified): the mortality at 12.5 ppm in the assay on Tetranychus urticae [1] was found to be 80%. Also, in the assay on Tetranychus urticae [2], the mortality at 200 ppm stood at 100%. Further, the mortality at 50 ppm in the assay with Tetranychus urticae [3] was 100%. For the same compound, in the assay on Tetranychus urticae [4], the mortality at 500 ppm was found to be 100%.

With `CC1(C(=O)Nc2nnc(C(F)(F)C(F)(F)C(F)(F)C(F)(F)F)s2)CC1(Cl)Cl` (stereo unspecified), the mortality at 500 ppm in the assay with Tetranychus urticae [4] came out at 0%.

In the case of `CC1(C(=O)Nc2nncs2)CC1(Cl)Cl` (stereo unspecified), in the assay with Tetranychus urticae [4], the mortality at 500 ppm is 0%.

One may read the mortality as the percentage killed.
